Test results published in PMC10740061 (Food Chemistry: X, 2023).
Marks after values point to notes of the source that are not given here.

System: Caco-2 monolayer
Assay: Caco-2 monolayer transmembrane transport, apical to basolateral
Format: in vitro ADME, human
Details: for PappAtoB: 40 µM flavonoid, 6 h, A to B, mean ± SD (n = 3); for apparent permeability coefficient (in words): comparison among the dietary flavonoids, Table 2
[1] = RD (rice flour digested products) 400 µg/mL
[2] = WD (wheat flour digested products) 400 µg/mL

SMILES	PappAtoB (No substrate)	PappAtoB [1]	Increase in PappAtoB (RD vs no substrate)	PappAtoB [2]	Increase in PappAtoB (WD vs no substrate)	change of apparent permeability coefficient (in words) (RD group vs no substrate)	change of apparent permeability coefficient (in words) (WD group vs no substrate)	apparent permeability coefficient (in words)
O=c1cc(-c2ccccc2)oc2cc(O)c(O)c(O)c12 [Baicalein]	–	2.28 ± 0.01^a × 10^-6 cm/s	−0.21	3.79 ± 0.10^c × 10^-6 cm/s	0.31	decrease in the apparent permeability coefficient	increase	comparatively poor
O=c1cc(-c2ccc(O)cc2)oc2cc(O[C@@H]3O[C@H](CO)[C@@H](O)[C@H](O)[C@H]3O)cc(O)c12 [Apigenin-7-O-glucoside]	–	6.37 ± 0.02^a × 10^-6 cm/s	0.11	11.24 ± 0.64^b × 10^-6 cm/s	0.95	–	–	–
COc1ccc(-c2coc3cc(O)ccc3c2=O)cc1 [Formononetin]	–	12.01 ± 0.01^a × 10^-6 cm/s	−0.49	22.68 ± 0.95^b × 10^-6 cm/s	−0.05	decrease in permeability	–	notably higher apparent permeability coefficients
O=c1cc(-c2ccc(O)cc2)oc2cc(O)cc(O)c12 [Apigenin]	–	3.13 ± 0.01^b × 10^-6 cm/s	0.90	4.18 ± 0.06^c × 10^-6 cm/s	1.54	–	–	comparatively poor
O=c1c(O)c(-c2ccccc2)oc2cc(O)cc(O)c12 [Galangin]	–	8.76 ± 0.01^b × 10^-6 cm/s	0.28	12.01 ± 0.49^c × 10^-6 cm/s	0.75	–	–	–
Oc1cc(O)c2c(c1)O[C@H](c1ccc(O)c(O)c1)[C@H](O)C2 [(-)-Epicatechin]	–	37.30 ± 0.04^c × 10^-6 cm/s	0.62	27.24 ± 0.45^b × 10^-6 cm/s	0.18	–	–	notably higher apparent permeability coefficients
OC[C@H]1O[C@@H](Oc2cc3c(O)cc(O)cc3[o+]c2-c2ccc(O)c(O)c2)[C@H](O)[C@@H](O)[C@@H]1O [Cyanidin-3-O-glucoside]	7.96 ± 0.08^a × 10^-6 cm/s	7.85 ± 0.07^a × 10^-6 cm/s	−0.01	7.97 ± 0.06^a × 10^-6 cm/s	0.00	–	–	–
Oc1cc(O)c2c(c1)O[C@H](c1ccc(O)c(O)c1)[C@@H](O)C2 [(+)-Catechin]	11.22 ± 0.06^a × 10^-6 cm/s	18.75 ± 0.09^b × 10^-6 cm/s	0.67	–	−0.04	–	–	notably higher apparent permeability coefficients
O=C1c2c(O)cc(O)cc2O[C@H](c2cc(O)c(O)c(O)c2)[C@H]1O [Dihydromyricetin]	–	16.38 ± 0.03^b × 10^-6 cm/s	−0.05	14.82 ± 0.15^a × 10^-6 cm/s	−0.14	–	–	notably higher apparent permeability coefficients
O=c1c(-c2ccc(O)cc2)coc2cc(O)cc(O)c12 [Genistein]	–	14.45 ± 0.09^b × 10^-6 cm/s	0.21	22.89 ± 0.09^c × 10^-6 cm/s	0.92	–	–	–

Continued, in another order:

PappAtoB (No substrate)	PappAtoB [1]	Increase in PappAtoB (RD vs no substrate)	PappAtoB [2]	Increase in PappAtoB (WD vs no substrate)	change of apparent permeability coefficient (in words) (RD group vs no substrate)	change of apparent permeability coefficient (in words) (WD group vs no substrate)	SMILES	apparent permeability coefficient (in words)
0.64 ± 0.05^a × 10^-6 cm/s	1.26 ± 0.02^b × 10^-6 cm/s	0.96	3.67 ± 0.15^c × 10^-6 cm/s	4.71	–	–	O=c1c(O)c(-c2ccc(O)cc2)oc2cc(O[C@@H]3O[C@H](CO)[C@@H](O)[C@H](O)[C@H]3O)cc(O)c12 [Kaempferol-7-O-β-glucoside]	comparatively poor
–	6.54 ± 0.03^a × 10^-6 cm/s	−0.29	–	0.18	–	–	O=c1c(O)c(-c2ccc(O)c(O)c2)oc2cc(O)cc(O)c12 [Quercetin]	–
–	1.98 ± 0.02^a × 10^-6 cm/s	−0.73	12.18 ± 0.53^c × 10^-6 cm/s	0.67	decrease in permeability	–	COc1ccc([C@@H]2CC(=O)c3c(O)cc(O)cc3O2)cc1O [Hesperetin]	–
–	15.66 ± 0.09^a × 10^-6 cm/s	−0.37	17.71 ± 0.43^b × 10^-6 cm/s	−0.29	–	–	O=C1c2c(O)cc(O)cc2OC(c2ccc(O)c(O)c2)C1O (stereo not shown) [Taxifolin]	notably higher apparent permeability coefficients
–	1.80 ± 0.01^b × 10^-6 cm/s	0.34	2.38 ± 0.09^c × 10^-6 cm/s	0.77	–	–	C[C@@H]1O[C@@H](O[C@H]2[C@H](Oc3cc(O)c4c(c3)O[C@H](c3ccc(O)cc3)CC4=O)O[C@H](CO)[C@@H](O)[C@@H]2O)[C@H](O)[C@H](O)[C@H]1O [Naringin]	–
–	1.47 ± 0.05^a × 10^-6 cm/s	−0.73	9.61 ± 0.28^c × 10^-6 cm/s	0.72	–	–	C[C@@H]1O[C@@H](Oc2c(-c3ccc(O)c(O)c3)oc3cc(O)cc(O)c3c2=O)[C@H](O)[C@H](O)[C@H]1O [Quercitrin]	–
–	9.07 ± 0.01^b × 10^-6 cm/s	0.63	17.79 ± 0.03^c × 10^-6 cm/s	2.21	–	–	O=c1c(O)c(-c2cc(O)c(O)c(O)c2)oc2cc(O)cc(O)c12 [Myricetin]	–
7.78 ± 0.05^b × 10^-6 cm/s	5.40 ± 0.09^a × 10^-6 cm/s	−0.31	11.68 ± 0.07^c × 10^-6 cm/s	0.50	–	–	COc1cc(-c2oc3cc(O)cc(O)c3c(=O)c2O[C@@H]2O[C@H](CO[C@@H]3O[C@@H](C)[C@H](O)[C@@H](O)[C@H]3O)[C@@H](O)[C@H](O)[C@H]2O)ccc1O [Isorhamnetin-3-O-rutinoside]	–
–	5.43 ± 0.06^a × 10^-6 cm/s	−0.57	11.15 ± 1.54^b × 10^-6 cm/s	−0.12	–	–	O=C1C[C@@H](c2ccc(O)cc2)Oc2cc(O)cc(O)c21 [Naringenin]	notably higher apparent permeability coefficients
–	6.64 ± 0.03^a × 10^-6 cm/s	−0.29	11.42 ± 0.91^c × 10^-6 cm/s	0.23	–	–	COc1cc(-c2oc3cc(O)cc(O)c3c(=O)c2O)ccc1O [Isorhamnetin]	–
–	25.87 ± 0.04^b × 10^-6 cm/s	−0.09	15.54 ± 0.46^a × 10^-6 cm/s	−0.46	–	–	O=c1cc(-c2ccc(O)cc2)oc2c([C@@H]3O[C@H](CO)[C@@H](O)[C@H](O)[C@H]3O)c(O)cc(O)c12 [Vitexin]	highest apparent permeability coefficient
